Structures can show the parent of a compound that is named as a salt. Where two headings read alike, the source gives them in different places.

Here are results for five compounds from PMC12715794, “Comparative Characterization of Oxidative Enzymes for Arabinoxylan and Protein Cross-Linking via Ferulic Acid and Tyrosine in Model Systems” (Journal of Agricultural and Food Chemistry, 2025).

Assay [1] deals with T1, TvL; laccase from Trametes versicolor.
T1 construct: gene LCC2
The following applies: at pH and temperature optima; McIlvaine buffer.

Assay [2] deals with T2, AnG; glucose oxidase from Aspergillus niger (Aspergillus niger, UniProt P13006).
T2 construct: gene gox
The assay can be described thus: ABTS-HrP-coupled spectrophotometric assay, […] nm. It counts as biochemical. The following applies: 16 mM glucose, 1 mM ABTS, excess HrP (0.7 mg/mL); McIlvaine buffer.

In assay [3] the test system is T1, TvL; laccase from Trametes versicolor. Particulars: at pH and temperature optima; McIlvaine buffer; enzyme alone.
The test system is the same in assay [4]. Kind of assay: HTyr-MBTH spectrophotometric assay, […] nm. It counts as biochemical. The following applies: at pH and temperature optima; McIlvaine buffer; excess MBTH, 2% DMF.
In assay [5] the test system is T3, AbT; tyrosinase from Agaricus bisporus.
T3 construct: gene PPO3
The assay can be described thus: HTyr-MBTH spectrophotometric assay, […] nm. The class given is biochemical. Particulars: at pH and temperature optima; McIlvaine buffer; excess MBTH, 2% DMF.

The test system is the same in assay [6]. The assay can be described thus: spectrophotometric, product formation at […] nm. It counts as biochemical. Particulars: at pH and temperature optima; McIlvaine buffer; enzyme alone.

T2 sequence (P13006 23-605): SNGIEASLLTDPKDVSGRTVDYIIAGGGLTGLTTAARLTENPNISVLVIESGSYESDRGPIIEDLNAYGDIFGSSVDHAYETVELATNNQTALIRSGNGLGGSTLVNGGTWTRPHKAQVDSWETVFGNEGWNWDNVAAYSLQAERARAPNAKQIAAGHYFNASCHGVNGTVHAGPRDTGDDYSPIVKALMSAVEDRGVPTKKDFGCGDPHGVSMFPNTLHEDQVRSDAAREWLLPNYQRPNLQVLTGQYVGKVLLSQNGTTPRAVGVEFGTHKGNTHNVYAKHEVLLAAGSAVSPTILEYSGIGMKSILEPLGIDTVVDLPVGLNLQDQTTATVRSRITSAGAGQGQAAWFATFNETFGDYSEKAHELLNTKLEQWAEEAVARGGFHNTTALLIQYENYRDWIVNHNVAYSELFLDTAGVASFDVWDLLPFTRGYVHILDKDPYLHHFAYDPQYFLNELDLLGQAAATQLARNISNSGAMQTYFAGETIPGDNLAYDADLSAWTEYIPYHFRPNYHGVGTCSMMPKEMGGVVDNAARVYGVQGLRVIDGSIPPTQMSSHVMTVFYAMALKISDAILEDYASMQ

For orientation: Km means the concentration of substrate that gives half-maximal velocity. Regarding `CCn1c(=NN=c2sc3cc(S(=O)(=O)O)ccc3n2CC)sc2cc(S(=O)(=O)O)ccc21` [ABTS, 2,2′-azino-bis(3-ethylbenzothiazoline-6-sulfonic acid) diammonium salt], the Michaelis constant (Km) in assay [1] turned out to be 36 µM.

For `OC[C@H]1OC(O)[C@H](O)[C@@H](O)[C@@H]1O` (stereo partly drawn) [D-glucose], the “ABTS-HrP-coupled spectrophotometric assay, 415 nm” value in assay [2] is given as “For AnG, glucose as a substrate was converted to H2O2”.

For the compound `COc1cc(/C=C/C(=O)O)ccc1O` [FA, trans-ferulic acid], the Km in assay [3] came to 57 µM.

In the case of `OCCc1ccc(O)c(O)c1` [HTyr, hydroxytyrosol], the Km in assay [4] was determined as 73 µM; in assay [5] it was 44 µM.

Consider `N[C@@H](Cc1ccc(O)cc1)C(=O)O` [Y, L-tyrosine], for which the Km in assay [6] turned out to be 504 µM.
